Results published in ChEMBL document CHEMBL1132082, “Nonsteroidal androgen receptor agonists based on 4-(trifluoromethyl)-2H-pyrano[3,2-g]quinolin-2-one” (Bioorg Med Chem Lett, 1999).

What was measured:
[1] = target: T1, Progesterone receptor (Homo sapiens) (UniProt P06401); experiment: (§1) In vitro antagonistic activity against human progesterone receptor (hPR); assay type: functional
T1 sequence (whole entry): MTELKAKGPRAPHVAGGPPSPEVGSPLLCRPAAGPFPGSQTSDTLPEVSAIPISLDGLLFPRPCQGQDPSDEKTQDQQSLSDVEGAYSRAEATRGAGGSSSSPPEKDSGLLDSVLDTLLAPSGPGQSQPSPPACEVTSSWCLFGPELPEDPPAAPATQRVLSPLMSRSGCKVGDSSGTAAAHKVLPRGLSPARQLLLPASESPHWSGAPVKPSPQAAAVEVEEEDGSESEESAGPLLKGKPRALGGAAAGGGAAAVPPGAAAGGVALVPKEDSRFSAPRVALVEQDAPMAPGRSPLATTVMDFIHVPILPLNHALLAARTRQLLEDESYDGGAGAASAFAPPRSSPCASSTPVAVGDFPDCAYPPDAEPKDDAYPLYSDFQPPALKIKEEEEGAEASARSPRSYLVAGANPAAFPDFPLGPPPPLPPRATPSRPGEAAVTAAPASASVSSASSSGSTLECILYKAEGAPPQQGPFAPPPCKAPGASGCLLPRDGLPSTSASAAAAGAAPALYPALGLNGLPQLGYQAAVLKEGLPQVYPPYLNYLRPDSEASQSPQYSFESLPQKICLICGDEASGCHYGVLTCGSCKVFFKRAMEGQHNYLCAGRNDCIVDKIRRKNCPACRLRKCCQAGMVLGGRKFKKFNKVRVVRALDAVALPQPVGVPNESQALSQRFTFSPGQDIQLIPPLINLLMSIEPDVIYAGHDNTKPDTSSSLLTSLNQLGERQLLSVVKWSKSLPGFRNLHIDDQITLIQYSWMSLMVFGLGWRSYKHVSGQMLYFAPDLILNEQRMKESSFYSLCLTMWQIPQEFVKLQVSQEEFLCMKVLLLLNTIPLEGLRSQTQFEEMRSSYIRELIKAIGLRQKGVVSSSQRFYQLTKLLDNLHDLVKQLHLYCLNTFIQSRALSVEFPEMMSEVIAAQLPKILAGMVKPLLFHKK

Androgen receptor [2] = target: T2, Androgen receptor (Homo sapiens, UniProt P10275)
T2 sequence (P10275 whole entry): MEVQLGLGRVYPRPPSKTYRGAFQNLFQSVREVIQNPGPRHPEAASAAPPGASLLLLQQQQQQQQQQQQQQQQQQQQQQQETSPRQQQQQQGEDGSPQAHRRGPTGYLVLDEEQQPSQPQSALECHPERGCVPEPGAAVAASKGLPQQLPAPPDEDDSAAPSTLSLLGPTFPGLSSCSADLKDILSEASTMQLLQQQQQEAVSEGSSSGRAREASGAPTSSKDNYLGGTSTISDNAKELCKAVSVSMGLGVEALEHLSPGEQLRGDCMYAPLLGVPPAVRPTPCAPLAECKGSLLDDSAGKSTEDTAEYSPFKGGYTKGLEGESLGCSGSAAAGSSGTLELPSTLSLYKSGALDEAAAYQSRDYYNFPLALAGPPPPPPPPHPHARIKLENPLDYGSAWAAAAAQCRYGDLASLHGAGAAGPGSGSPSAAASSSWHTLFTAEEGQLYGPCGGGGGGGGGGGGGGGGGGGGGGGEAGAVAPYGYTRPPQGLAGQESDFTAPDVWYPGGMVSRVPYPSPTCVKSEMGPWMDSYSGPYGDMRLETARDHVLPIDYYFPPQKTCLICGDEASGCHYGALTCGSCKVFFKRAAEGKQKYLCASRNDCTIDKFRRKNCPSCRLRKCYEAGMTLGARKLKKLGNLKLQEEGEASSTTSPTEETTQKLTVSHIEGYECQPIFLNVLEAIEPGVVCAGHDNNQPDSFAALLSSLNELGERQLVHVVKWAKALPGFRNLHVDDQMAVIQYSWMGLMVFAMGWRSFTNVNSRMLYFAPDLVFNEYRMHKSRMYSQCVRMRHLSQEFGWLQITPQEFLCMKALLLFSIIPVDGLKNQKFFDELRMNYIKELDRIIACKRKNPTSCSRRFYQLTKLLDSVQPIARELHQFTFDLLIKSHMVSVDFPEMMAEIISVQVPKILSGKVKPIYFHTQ
Description: In vitro agonistic activity against human androgen receptor using cotransfection assay in CV-1 cells.

Progesterone receptor = target: T3, Progesterone receptor (Homo sapiens, UniProt P06401); experiment: as §1; assay type: functional
T3 sequence (P06401 whole entry): T1 sequence (whole entry)

Androgen receptor [3] = target: T2, Androgen receptor; remark: listed apart in the source

CCC1CCNc2cc3oc(=O)cc(C(F)(F)F)c3cc21 (stereo not given)
Efficacy [1]: 91%
EC50 (Androgen receptor [2]): 2 nM
IC50 (Progesterone receptor): 200 nM
IC50 (Androgen receptor [3]): > 10 nM

CCCC1CCNc2cc3oc(=O)cc(C(F)(F)F)c3cc21 (stereo not given)
Efficacy [1]: 89%
EC50 (Androgen receptor [2]): 5 nM
IC50 (Progesterone receptor): 106 nM
IC50 (Androgen receptor [3]): > 10 nM

CC1CCNc2cc3oc(=O)cc(C(F)(F)F)c3cc21 (stereo not given)
Efficacy [1]: 83%
EC50 (Androgen receptor [2]): 2 nM
IC50 (Progesterone receptor): 280 nM
IC50 (Androgen receptor [3]): > 10 nM

CCC1Nc2cc3oc(=O)cc(C(F)(F)F)c3cc2CC1C (stereo not given)
Efficacy [1]: 88%
EC50 (Androgen receptor [2]): 1 nM
IC50 (Progesterone receptor): 440 nM
IC50 (Androgen receptor [3]): > 10 nM

O=c1cc(C(F)(F)F)c2cc3c(cc2o1)NCCC3C(F)(F)F (stereo not given)
Efficacy [1]: 68%
EC50 (Androgen receptor [2]): 2 nM
IC50 (Progesterone receptor): 270 nM
IC50 (Androgen receptor [3]): > 10 nM
